Measurements as given in article PMC8063180 (Cell Reports. Physical Science, 2021).
In brackets after ≈: the same amount, converted by molar mass. One block for each compound: values may come before it. Peptide text beside a SMILES is read from it.

Experiments:
[1] = physchem; assay type: physicochemical; conditions: for Fold lower critical concentration compared with AFA: at the highest measured temperature
[2] = Dynamic light scattering; assay type: physicochemical; conditions: pH 6.8, room temperature
[3] = assay type: physicochemical; conditions: for Effect of polyphenols (EGCG, TA, RA) on critical soluble concentration: increasing inhibitor ratio, dose-dependent
[4] = aqueous solution; cited from earlier work
[5] = pH 6.8, Water solubility (critical soluble concentration), pure water, room temperature, pH 6.8
[6] = water, room temperature, pH 6.8

solubility [1, 5]: 2.6 mM (≈ 1.06 mg/mL)
Compound: O=C(O)[C@H](Cc1ccccc1)NC(=O)[C@H](Cc1ccccc1)NC(=O)[C@@H]1CCCN1 [PFF, reference compound] (H-Pro-Phe-Phe-OH)

DLS cluster size ([2]; 100 mM in water): approximately 4,000 nm
DLS cluster size ([2]; above 40 mM in water): remained constant
Fold lower critical concentration compared with AFA [1]: ~6 fold
solubility at 2 min [1, 5]: 105 mM (≈ 32.3 mg/mL)
Effect of polyphenols (EGCG, TA, RA) on critical soluble concentration [3]: significant increase
Fold increase of solubility by TA ([3]; peptide:TA 1:2, versus no inhibitor): 3 fold
Compound: C[C@H](N)C(=O)N[C@@H](C)C(=O)N[C@@H](Cc1ccccc1)C(=O)O [AAF] (H-Ala-Ala-Phe-OH)

solubility [1, 5]: 8.1 mM (≈ 2.53 mg/mL)
Compound: N[C@@H](Cc1ccccc1)C(=O)N[C@@H](Cc1ccccc1)C(=O)O [FF, reference compound] (H-Phe-Phe-OH)

DLS cluster size ([2]; above 40 mM in water): approximately 2000 nm
Fold lower critical concentration compared with AFA [1]: ~15 fold
solubility [1, 5]: 42 mM (≈ 12.9 mg/mL)
Effect of polyphenols (EGCG, TA, RA) on critical soluble concentration [3]: significant increase
Compound: C[C@H](NC(=O)[C@H](C)NC(=O)[C@@H](N)Cc1ccccc1)C(=O)O [FAA] (H-Phe-Ala-Ala-OH)

solubility [1, 5]: 98.3 mM (≈ 37.7 mg/mL)
Fold higher solubility compared with GFF [1, 6]: 6 fold
Compound: C[C@H](N)C(=O)N[C@@H](Cc1ccccc1)C(=O)N[C@@H](Cc1ccccc1)C(=O)O [AFF, reference compound] (H-Ala-Phe-Phe-OH)

solubility [1, 5]: 14.5 mM (≈ 5.36 mg/mL)
Compound: NCC(=O)N[C@@H](Cc1ccccc1)C(=O)N[C@@H](Cc1ccccc1)C(=O)O [GFF, reference compound] (H-Gly-Phe-Phe-OH)

solubility [1, 5]: 28.3 mM (≈ 7.88 mg/mL)
Compound: CC(C)C[C@H](NC(=O)[C@@H](N)Cc1ccccc1)C(=O)O [FL, reference compound] (H-Phe-Leu-OH)

solubility [1, 5]: 19.4 mM (≈ 5.4 mg/mL)
Compound: CC(C)C[C@H](N)C(=O)N[C@@H](Cc1ccccc1)C(=O)O [LF, reference compound] (H-Leu-Phe-OH)

DLS cluster size ([2]; 100 mM in water): persisted
DLS cluster size ([2]; above 40 mM in water): remained constant
solubility ([1]; Water solubility, water, 70°C): 702 mM (≈ 216 mg/mL)
solubility ([1]; Water solubility, water, 90°C): 720 mM (≈ 221 mg/mL)
solubility ([1]; Water solubility, water, near the boiling point of water): 710 mM (≈ 218 mg/mL)
Minimal critical concentration ([1]; around pH 6–7, room temperature): 668 mM
solubility [1, 5]: 672 mM (≈ 207 mg/mL)
Water solubility ([1]; pH approaching the pKa value of either terminus, room temperature): 672 mM
Fold higher solubility compared with AAF [1, 6]: 6 fold
Fold higher solubility compared with FAA [1, 6]: 15 fold
Effect of inhibitors (EGCG, TA, RA) on solubility ([3]; molar ratios 1:0.1–1:0.3): unable to significantly alter
Compound: C[C@H](N)C(=O)N[C@@H](Cc1ccccc1)C(=O)N[C@@H](C)C(=O)O [AFA, Ala-Phe-Ala] (H-Ala-Phe-Ala-OH)
Reported critical concentration [4]: up to 10 mM

solubility [1, 5]: 0.5 mM (≈ 0.23 mg/mL)
Compound: N[C@@H](Cc1ccccc1)C(=O)N[C@@H](Cc1ccccc1)C(=O)N[C@@H](Cc1ccccc1)C(=O)O [FFF, reference compound] (H-Phe-Phe-Phe-OH)
